# Key:
# bedstraw = experiment: Test B pre/postemergence bedstraw; type: in vivo, Galium aparine
# How it was run: (§1)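 Test chemicals in a non-phytotoxic solvent mixture with surfactant were sprayed preemergence onto planted seeds and postemergence onto plants 2 to 18 cm tall (1- to 4-leaf stage). After twelve to sixteen days in a greenhouse, injury was visually rated against untreated controls from 0 (no effect) to 10 (complete control).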
# blackgrass = experiment: Test B pre/postemergence blackgrass; type: in vivo, Alopecurus myosuroides
# How it was run: as §1
# surinam grass = experiment: Test B pre/postemergence surinam grass; type: in vivo, Brachiaria decumbens
# How it was run: as §1
# cocklebur = experiment: Test B pre/postemergence cocklebur; type: in vivo, Xanthium strumarium
# How it was run: as §1
# corn = experiment: Test B pre/postemergence corn; type: in vivo, Zea mays
# How it was run: as §1
# crabgrass = experiment: Test B pre/postemergence crabgrass; type: in vivo, Digitaria sanguinalis
# How it was run: as §1
# giant foxtail = experiment: Test B pre/postemergence giant foxtail; type: in vivo, Setaria faberii
# How it was run: as §1
# morningglory = experiment: Test B pre/postemergence morningglory; type: in vivo, Ipomoea hederacea
# How it was run: as §1
# pigweed = experiment: Test B pre/postemergence pigweed; type: in vivo, Amaranthus retroflexus
# How it was run: as §1
# rape = experiment: Test B pre/postemergence rape; type: in vivo, Brassica napus
# How it was run: as §1
# soybean = experiment: Test B pre/postemergence soybean; type: in vivo, Glycine max
# How it was run: as §1
# sugar beet = experiment: Test B pre/postemergence sugar beet; type: in vivo, Beta vulgaris
# How it was run: as §1
# velvetleaf = experiment: Test B pre/postemergence velvetleaf; type: in vivo, Abutilon theophrasti
# How it was run: as §1
# wheat = experiment: Test B pre/postemergence wheat; type: in vivo, Triticum aestivum
# How it was run: as §1
# wild oat = experiment: Test B pre/postemergence wild oat; type: in vivo, Avena fatua
# How it was run: as §1
# purple nutsedge = experiment: Test B pre/postemergence purple nutsedge; type: in vivo, Cyperus rotundus
# How it was run: as §1
# [1] = Postemergence, Rate 125 g/ha, scale of 0 to 10 where 0 is no effect and 10 is complete control
# [2] = Preemergence, Rate 62 g/ha, scale 0 to 10 (0 no effect, 10 complete control)
# [3] = Preemergence, Rate 125 g/ha, 0 is no effect, 10 is complete control
# [4] = Preemergence, Rate 250 g/ha, scale 0 to 10, 0 is no effect, 10 is complete control
# [5] = Preemergence, Rate 500 g/ha, scale 0 to 10 (0 no effect, 10 complete control)
# [6] = Rate 62 g/ha, Postemergence, scale of 0 to 10 where 0 is no effect and 10 is complete control
# [7] = Rate 250 g/ha, Postemergence, scale 0 to 10, 0 is no effect, 10 is complete control
# [8] = Rate 500 g/ha, Postemergence, scale 0 to 10
smiles,measurement,setting,value
CC(C)N(C(=O)n1oc(=O)n(C(C)c2ccccc2)c1=O)c1ccc(F)cc1 (stereo not shown) [Compound 134],Bedstraw plant response rating,bedstraw; [1],4
same,Bedstraw plant response rating,bedstraw; [2],0
same,Bedstraw plant response rating (0 to 10 scale),bedstraw; [3],0
same,Bedstraw plant response rating,bedstraw; [4],0
same,Bedstraw plant response rating,bedstraw; [5],3
same,Bedstraw plant response rating,bedstraw; [6],4
same,"Plant response rating, Bedstraw",bedstraw; [7],4
same,Blackgrass plant response rating,blackgrass; [1],0
same,Blackgrass plant response rating,blackgrass; [2],0
same,Blackgrass plant response rating (0 to 10 scale),blackgrass; [3],0
same,Blackgrass plant response rating,blackgrass; [4],2
same,Blackgrass plant response rating,blackgrass; [5],2
same,Blackgrass plant response rating,blackgrass; [6],0
same,"Plant response rating, Blackgrass",blackgrass; [7],0
same,Blackgrass plant response rating,blackgrass; [8],7
same,B. signalgrass plant response rating,surinam grass; [1],0
same,B. signalgrass plant response rating,surinam grass; [2],0
same,B. signalgrass plant response rating (0 to 10 scale),surinam grass; [3],2
same,B. signalgrass plant response rating,surinam grass; [4],6
same,B. signalgrass plant response rating,surinam grass; [5],8
same,B. signalgrass plant response rating,surinam grass; [6],0
same,"Plant response rating, B. signalgrass",surinam grass; [7],0
same,B. signalgrass plant response rating,"surinam grass; Rate 500 g/ha, Postemergence, scale of 0 to 10 where 0 is no effect and 10 is complete control",2
same,Cocklebur plant response rating,cocklebur; [1],0
same,Cocklebur plant response rating,cocklebur; [2],0
same,Cocklebur plant response rating (0 to 10 scale),cocklebur; [3],0
same,Cocklebur plant response rating,cocklebur; [4],0
same,Cocklebur plant response rating,cocklebur; [5],0
same,Cocklebur plant response rating,cocklebur; [6],0
same,"Plant response rating, Cocklebur",cocklebur; [7],0
same,Cocklebur plant response rating,cocklebur; [8],1
same,Corn plant response rating,corn; [1],0
same,Corn plant response rating,corn; [2],0
same,Corn plant response rating (0 to 10 scale),corn; [3],0
same,Corn plant response rating,corn; [4],0
same,Corn plant response rating,corn; [5],0
same,Corn plant response rating,corn; [6],0
same,"Plant response rating, Corn",corn; [7],0
same,Corn plant response rating,corn; [8],0
same,Crabgrass plant response rating,crabgrass; [1],0
same,Crabgrass plant response rating,crabgrass; [2],2
same,Crabgrass plant response rating (0 to 10 scale),crabgrass; [3],6
same,Crabgrass plant response rating,crabgrass; [4],9
same,Crabgrass plant response rating,crabgrass; [5],9
same,Crabgrass plant response rating,crabgrass; [6],0
same,"Plant response rating, Crabgrass",crabgrass; [7],4
same,Crabgrass plant response rating,crabgrass; [8],9
same,Giant foxtail plant response rating,giant foxtail; [1],0
same,Giant foxtail plant response rating,giant foxtail; [2],6
same,Giant foxtail plant response rating (0 to 10 scale),giant foxtail; [3],9
same,Giant foxtail plant response rating,giant foxtail; [4],10
same,Giant foxtail plant response rating,giant foxtail; [5],10
same,Giant foxtail plant response rating,giant foxtail; [6],0
same,"Plant response rating, Giant foxtail",giant foxtail; [7],0
same,Giant foxtail plant response rating,giant foxtail; [8],3
same,Morningglory plant response rating,morningglory; [1],6
same,Morningglory plant response rating,morningglory; [2],0
same,Morningglory plant response rating (0 to 10 scale),morningglory; [3],0
same,Morningglory plant response rating,morningglory; [4],0
same,Morningglory plant response rating,morningglory; [5],1
same,Morningglory plant response rating,morningglory; [6],5
same,"Plant response rating, Morningglory",morningglory; [7],8
same,Morningglory plant response rating,morningglory; [8],8
same,Redroot pigweed plant response rating,pigweed; [1],0
same,Redroot pigweed plant response rating,pigweed; [2],0
same,Redroot pigweed plant response rating (0 to 10 scale),pigweed; [3],0
same,Redroot pigweed plant response rating,pigweed; [4],0
same,Redroot pigweed plant response rating,pigweed; [5],2
same,Redroot pigweed plant response rating,pigweed; [6],0
same,"Plant response rating, Redroot pigweed",pigweed; [7],0
same,Redroot pigweed plant response rating,pigweed; [8],0
same,Rape plant response rating,rape; [1],0
same,Rape plant response rating,rape; [2],0
same,Rape plant response rating (0 to 10 scale),rape; [3],0
same,Rape plant response rating,rape; [4],0
same,Rape plant response rating,rape; [5],6
same,Rape plant response rating,rape; [6],0
same,"Plant response rating, Rape",rape; [7],0
same,Rape plant response rating,rape; [8],0
same,Soybean plant response rating,soybean; [1],1
same,Soybean plant response rating,soybean; [2],0
same,Soybean plant response rating (0 to 10 scale),soybean; [3],0
same,Soybean plant response rating,soybean; [4],0
same,Soybean plant response rating,soybean; [5],0
same,Soybean plant response rating,soybean; [6],1
same,"Plant response rating, Soybean",soybean; [7],1
same,Soybean plant response rating,soybean; [8],1
same,Sugarbeets plant response rating,sugar beet; [1],0
same,Sugarbeets plant response rating,sugar beet; [2],0
same,Sugarbeets plant response rating (0 to 10 scale),sugar beet; [3],2
same,Sugarbeets plant response rating,sugar beet; [4],4
same,Sugarbeets plant response rating,sugar beet; [5],7
same,Sugarbeets plant response rating,sugar beet; [6],0
same,"Plant response rating, Sugarbeets",sugar beet; [7],0
same,Sugarbeets plant response rating,sugar beet; [8],2
same,Velvetleaf plant response rating,velvetleaf; [1],0
same,Velvetleaf plant response rating,velvetleaf; [2],0
same,Velvetleaf plant response rating (0 to 10 scale),velvetleaf; [3],0
same,Velvetleaf plant response rating,velvetleaf; [4],2
same,Velvetleaf plant response rating,velvetleaf; [5],7
same,Velvetleaf plant response rating,velvetleaf; [6],0
same,"Plant response rating, Velvetleaf",velvetleaf; [7],0
same,Velvetleaf plant response rating,velvetleaf; [8],4
same,Wheat plant response rating,wheat; [1],0
same,Wheat plant response rating,wheat; [2],0
same,Wheat plant response rating (0 to 10 scale),wheat; [3],0
same,Wheat plant response rating,wheat; [4],0
same,Wheat plant response rating,wheat; [5],0
same,Wheat plant response rating,wheat; [6],0
same,"Plant response rating, Wheat",wheat; [7],0
same,Wheat plant response rating,wheat; [8],0
same,Wild oats plant response rating,wild oat; [1],0
same,Wild oats plant response rating,wild oat; [2],0
same,Wild oats plant response rating (0 to 10 scale),wild oat; [3],0
same,Wild oats plant response rating,wild oat; [4],2
same,Wild oats plant response rating,wild oat; [5],2
same,Wild oats plant response rating,wild oat; [6],0
same,"Plant response rating, Wild oats",wild oat; [7],0
same,Wild oats plant response rating,wild oat; [8],0
same,Nutsedge plant response rating,purple nutsedge; [1],0
same,Nutsedge plant response rating,purple nutsedge; [2],0
same,Nutsedge plant response rating (0 to 10 scale),purple nutsedge; [3],0
same,Nutsedge plant response rating,purple nutsedge; [4],0
same,Nutsedge plant response rating,purple nutsedge; [5],0
same,Nutsedge plant response rating,purple nutsedge; [6],0
same,"Plant response rating, Nutsedge",purple nutsedge; [7],0
same,Nutsedge plant response rating,purple nutsedge; [8],0
